Experimental data reported in article PMC12347358, “Structural Insights and Calcium-Switching Mechanism of Fasciola hepatica Calcium-Binding Protein FhCaBP4” (International Journal of Molecular Sciences, 2025).

Key:
[1] = target: T1, FhCaBP4 (Fasciola hepatica calcium-binding protein 4) (Fasciola hepatica, UniProt I6U578); experiment: microscale thermophoresis (MST), labelled purified protein
T1 construct: full-length (residues 1–191), C-terminal 6×His-tag (LEHHHHHH)

[2] = target: Fasciola hepatica calcium-binding protein 4 (FhCaBP4), full-length (residues 1–191) (Fasciola hepatica); experiment: crystal structure; apo form at 1.93 Å, space group P212121, two molecules per asymmetric unit; crystals grown at 20 °C by vapor diffusion with 2 M ammonium sulfate, 0.1 M sodium citrate/citric acid pH 5.5

| Compound | Kd [1] [µM] | stoichiometry N [2] |
| --- | --- | --- |
| CN(C)CCCN1c2ccccc2Sc2ccc(Cl)cc21 [CPZ] | 289 ± 99.6 |  |
| CN1CCN(CCCN2c3ccccc3Sc3ccc(C(F)(F)F)cc32)CC1 [TFP] | 699 ± 341 |  |
| NCCCCCCNS(=O)(=O)c1cccc2c(Cl)cccc12 [W7] | 471 ± 157 |  |
| Fasciola hepatica calcium-binding protein 4 (FhCaBP4), full-length (residues 1–191) (natural protein) |  | 2 |
